Measured values taken from patent US9340532B2, “Methods and compositions for inhibiting CNKSR1” (PHUSIS THERAPEUTICS, INC., priority 2012, dated 2016).
Where two headings read alike, the source gives them in different places.

Columns and labels:
[1] = target: T1, CNK1 PH-domain (CNKSR1) (Homo sapiens, UniProt Q969H4); assay: SPR binding assay (Biacore T100), CNK1 PH-domain
T1 construct: The PH-domain His-fusion proteins (CNK1 and AKT1) were expressed and immobilized on a NTA chip; made in house
T1 sequence (Q969H4 403-502 limits assumed): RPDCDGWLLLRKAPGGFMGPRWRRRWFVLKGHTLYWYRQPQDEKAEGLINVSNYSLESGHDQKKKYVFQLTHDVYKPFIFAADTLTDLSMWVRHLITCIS
Protocol: (§1) All interaction analyses were done with a Biacore T100 Control Software v3.2, and BIAevaluation v4.1 analysis software (Biacore). The PH-domain His-fusion proteins (CNK1 and AKT1) were expressed and immobilized on a NTA chip to a level of 10,000 response units or less. Small molecule analytes at concentrations ranging from 50 μM to 0.010 μM were injected at a high flow rate (30 μL/min) DMSO concentrations in all samples and running buffer were 1-5% (v/v).
Other docking was performed using modeling algorithms with state-of-the-art commercial drug discovery software (Schrodinger suite). […] Additionally, ligand-based approaches provided an alternative to structure based drug discovery. Ligand-based virtual screening methodologies can take into account shape and electrostatics (like ROCS) and the pharmacophoric features (acceptor, donor, hydrophobic, aromatic, etc.) of its functional groups. […] SPR interaction analyses of all other compounds was undertaken using a Biacore T100 with Control and Evaluation software kit.

[2] = system: A549 (KRAS mutant cell line); assay: Proliferation Assay A549; format: cell-based; settings: Homo sapiens, N = 2 experiments
Protocol: (§2) The isogenic KRAS lines harboring G12D, G12C, and G12V were obtained from Horizon Discovery labs on a one year lease. These cells were cultured in McCoys media with 10% FBS to 80% confluency. Cells were then released from flasks via trypsinization and plated into 96-well plates at an initial density range of 2000 cells per well. Cells were allowed 24 hours to attach, and then the agents were added to the culture media at a range of concentrations from 0-100 μM. Cells were incubated for 72 hours with the drugs, and then viability was assessed using an MTS viability assay. Cells were exposed to MTS reagent (Promega) dissolved in PBS (Hyclone) at a concentration of 200 μL reagent/mL media for 2 hours. Absorbance was then read at 490 nm, and viability was expressed as a percentage normalized between the negative control (no cells plated) and the condition of cells with no drug added (100% viability) normalized as the upper limit of viability.
(§3) Our panel of 30 cell lines and an extensive characterization were obtained from Dr. John Minna (UTSW). All cell lines were cultured in RPMI 1640 with 10% FBS. Cells were treated with concentrations of agents at concentrations 0.01 to 50 μM and evaluated as described above. IC50's were determined using Excelfit.

[3] = system: H1373 (KRAS mutant cell line); assay: Proliferation Assay H1373; format: cell-based; settings: Homo sapiens, NCI-H1373, N = 2 experiments
Protocol: as §2, §3

[4] = system: H1975 (KRAS wildtype cell line); assay: Proliferation Assay H1975; format: cell-based; settings: Homo sapiens, NCI-H1975, n = 1
Protocol: as §2, §3

[5] = system: H226 (KRAS wildtype cell line); assay: Proliferation Assay H226; format: cell-based; settings: Homo sapiens, NCI-H226, n = 1
Protocol: as §2, §3

[6] = target: T2, AKT1 PH-domain (Homo sapiens, UniProt P31749); assay: SPR binding assay (Biacore T100), AKT1 PH-domain; settings: for Kd: read-out: AKT KD
T2 construct: The PH-domain His-fusion proteins (CNK1 and AKT1) were expressed and immobilized on a NTA chip; made in house
T2 sequence (P31749 5-108 limits assumed): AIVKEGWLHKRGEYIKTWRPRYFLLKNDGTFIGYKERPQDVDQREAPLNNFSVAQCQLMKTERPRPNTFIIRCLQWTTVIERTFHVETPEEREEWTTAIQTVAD
Protocol: as §1
A commercially available docking package, GOLD (GOLD [3.2], CCDC: Cambridge, UK, 2007) was used to evaluate the docking of compounds 1-7 into the binding pocket, see e.g. Table 5. Other docking was performed using modeling algorithms with state-of-the-art commercial drug discovery software (Schrodinger suite). GLIDE was chosen as the docking algorithm used to select and optimize compounds, providing a GlideScore as a rough estimate of binding affinity that was used to rank and select the best compounds. Additionally, ligand-based approaches provided an alternative to structure based drug discovery. Ligand-based virtual screening methodologies can take into account shape and electrostatics (like ROCS) and the pharmacophoric features (acceptor, donor, hydrophobic, aromatic, etc.) of its functional groups. Inositol tetraphosphate (IP4) binding to the PH-domain of CNKSR1 provided a good starting point for shape screening. Both structure-based and ligand-based approaches were used to find novel compounds (Table 7) and to refine and improve lead compounds (Tables 8, and 9). SPR interaction analyses for Compounds 1 through 7 were performed with a Biacore 2000, using Biacore2000 Control Software v3.2 and BIAevaluation v4.1 analysis software (Biacore) as described in Mol Cancer Ther 7:2621 (2008). SPR interaction analyses of all other compounds was undertaken using a Biacore T100 with Control and Evaluation software kit.

Structure (SMILES) | Surface Plasmon Resonance CNKSR1 binding (RU max) ([1]; date 11 26 13) | Surface Plasmon Resonance CNKSR1 stability (RU max post-injection) ([1]; date 11 26 13) | IC50 [2] | IC50 [3] | IC50 [4] | IC50 [5] | Kd ([1]; Table 6, read-out: CNKS KD) | Kd ([1]; Table 8, read-out: CNK KD) | Surface Plasmon Resonance CNKSR1 binding (RU max) ([1]; date 12 09 13) | Surface Plasmon Resonance CNKSR1 stability (RU max post-injection) ([1]; date 12 09 13) | Kd ([6]; Table 8) | AKT KD ([6]; Table 7, curated diversity set) | AKT KD ([6]; Table 8)
CCOC(=O)/C=C/c1cc(NS(=O)(=O)c2cccs2)c2c(c1OC)OCO2 [Compound 129] | −0.133 RU * 100/Da | −0.041 RU * 100/Da |  |  |  |  |  |  |  |  |  |  | 
CN1CC(=O)N(/C=C/c2cc(NS(=O)(=O)c3cccs3)c3c(c2O)OCO3)C1=O [Compound 91] | −1.867 RU * 100/Da | 0.288 RU * 100/Da | > 100 µM | > 100 µM | > 100 µM | > 100 µM |  |  |  |  |  |  | 
Cc1ccc(-c2csc(Cn3nc(CC4CN=CCO4)c4ccccc4c3=O)n2)cc1 (centres unmarked) [Compound 80] |  |  |  |  |  |  | > 100 µM |  |  |  |  |  | 
CCOC(=O)CCc1cc(NS(=O)(=O)c2cccs2)c2c(c1OC)OCO2 [Compound 85, ethyl 3-(4-methoxy-7-(thiophene-2-sulfonamido)benzo[d][1,3]dioxol-5-yl)propanoate] |  |  | > 100 µM | > 100 µM | > 100 µM | > 100 µM |  | > 500 µM | 1.026 RU * 100/Da | 1.515 RU * 100/Da | > 500 µM |  | 
CSc1c(NS(=O)(=O)c2cccs2)cc(O)c(O)c1/C=C/C(=O)O [Compound 106, (2E)-3-[2,3-dihydroxy-6-(methylsulfanyl)-5-(thiopliene-2-sulfonamido)phenyl]prop-2-enoic acid] |  |  | 55 µM | 58 µM | > 100 µM | 70 µM |  | 0.614 µM | −0.928 RU * 100/Da | 0.511 RU * 100/Da | 13.5 µM |  | 
COc1ccc(OC)c(-c2cc(C(=O)O)c3nc(C)[nH]c3n2)c1 [Compound 34] |  |  |  |  |  |  |  |  |  |  |  | Bound | 
Cc1ccc(-c2csc(Cn3nc(CC(=O)NCCC(N)=O)c4ccccc4c3=O)n2)cc1 [Compound 81] |  |  | 100 µM | 95 µM | 80 µM | > 100 µM | 109 µM |  | 0.316 RU * 100/Da | 0.154 RU * 100/Da |  |  | 
O=C(O)CCc1ccc(-c2ccc(Br)cc2)n1CCC(=O)O [Compound 67] |  |  |  |  |  |  |  |  |  |  |  | Bound | 
COc1cc(NS(=O)(=O)c2cccs2)c(SC)c(/C=C/N2C(=O)COC2=O)c1O [Compound 133] | −1.537 RU * 100/Da | −0.123 RU * 100/Da | > 100 µM | > 100 µM | > 100 µM | 95 µM |  |  |  |  |  |  | 
Cc1ccc(-c2csc(Cn3nc(CC(O)C[N+](=O)[O-])c4ccccc4c3=O)n2)cc1 (centres unmarked) [Compound 125] |  |  | 38 µM | 60 µM | 40 µM | 65 µM |  |  | −0.380 RU * 100/Da | −0.127 RU * 100/Da |  |  | 
CN1CC(=O)N(/C=C/c2cc(N(S(=O)(=O)c3cccs3)S(=O)(=O)c3cccs3)c3c(c2O)OCO3)C1=O [Compound 128] | 1.409 RU * 100/Da | 0.456 RU * 100/Da | > 100 µM | > 100 µM | > 100 µM | > 100 µM |  |  | −0.541 RU * 100/Da | −0.304 RU * 100/Da |  |  | 
COc1cc(NS(=O)(=O)c2cccs2)c(SC)c(/C=C/N2C(=O)CN(C)C2=O)c1O [Compound 132] | 0.457 RU * 100/Da | 0.906 RU * 100/Da | 72 µM | 60 µM | > 100 µM | 60 µM |  |  |  |  |  |  | 
O=C(O)CCc1cc(NS(=O)(=O)c2cccs2)c2c(c1O)OCO2 [Compound 90, 3-(4-hydroxy-7-(thiophene-2-sulfonamido)benzo[d][1,3]dioxol-5-yl)propanoic acid] |  |  | > 100 µM | > 100 µM | > 100 µM | > 100 µM |  |  | −7.809 RU * 100/Da | −3.766 RU * 100/Da |  |  | 
Cc1ccc(-c2csc(Cn3nc(CC(=O)NCC(N)=O)c4ccccc4c3=O)n2)cc1 [Compound 82] |  |  | 51 µM | 65 µM | 70 µM | > 100 µM |  |  | 1.304 RU * 100/Da | 0.544 RU * 100/Da |  |  | 
Cc1ccc(-c2csc(Cn3nc(C4OC5CCOC54)c4ccccc4c3=O)n2)cc1 (centres unmarked) [Compound 124] |  |  | 50 µM | 50 µM | > 100 µM | 95 µM |  |  | −0.369 RU * 100/Da | −0.053 RU * 100/Da |  |  | 
Cc1ccc(-c2csc(Cn3nc(CC(O)CN)c4ccccc4c3=O)n2)cc1 (centres unmarked) [Compound 126] |  |  | 27 µM | 16 µM | 27 µM | 19 µM |  |  | −0.166 RU * 100/Da | −0.031 RU * 100/Da |  |  | 
Cc1ccc(-c2csc(Cn3nc(CC(=O)NS(C)(=O)=O)c4ccccc4c3=O)n2)cc1 [Compound 127] |  |  | > 100 µM | > 100 µM | > 100 µM | > 100 µM |  |  | 3.050 RU * 100/Da | 2.868 RU * 100/Da |  |  | 
Cc1c(Cl)ccc2c(C(=O)O)cc(-c3cccnc3)nc12 [Compound 64] |  |  |  |  |  |  |  |  |  |  |  | Bound | 
COc1c(/C=C/C(=O)O)cc(NS(=O)(=O)c2cccs2)c2c1OCO2 [Compound 84, (E)-3-(4-methoxy-7-(thiophene-2-sulfonamido)benzo[d][1,3]dioxol-5-yl)acrylic acid] |  |  | > 100 µM | > 100 µM | > 100 µM | > 100 µM |  |  |  |  |  |  | No binding
Nc1cccc(-c2cc(C(=O)O)c3cc(Cl)ccc3n2)c1 [Compound 66] |  |  |  |  |  |  |  |  |  |  |  | Bound | 
O=C(O)/C=C/c1cc(NS(=O)(=O)c2cccs2)c2c(c1O)OCO2 [Compound 89, (E)-3-(4-hydroxy-7-(thiophene-2-sulfonamido)benzo[d][1,3]dioxol-5-yl)acrylic acid] |  |  | > 100 µM | > 100 µM | > 100 µM | > 100 µM |  | 3.37 µM | 1.350 RU * 100/Da | 1.401 RU * 100/Da |  |  | 
O=C1COC(=O)N1/C=C/c1cc(NS(=O)(=O)c2cccs2)c2c(c1O)OCO2 [Compound 100] | −1.240 RU * 100/Da | −0.026 RU * 100/Da | > 100 µM | > 100 µM | > 100 µM | > 100 µM |  |  |  |  |  |  | 
